Tested on: E. multilocularis metacestodes
Test: PGI assay: phosphoglucose isomerase release from damaged metacestodes
Assay type: cell-based, Echinococcus multilocularis
Conditions: 10 μM, 5 days, single wells, relative to DB1127 (10 μM)
Method: The preparation of E. multilocularis metacestode material (strain H95) from intraperitoneally (i.p.) infected BALB/c mice was performed as described earlier. Metacestode vesicles were used for in vitro drug screening when they reached 2 to 4 mm in diameter.
For screening of the Malaria Box against E. multilocularis metacestodes, the PGI screening assay was applied that measures the release of the enzyme phosphoglucose isomerase (PGI) upon physical impairment of metacestodes. The screening setup was done in 24 well plates as described by Stadelmann et al. For initial screening, each drug was applied at 10 μM to metacestodes in single wells. As a positive control-drug, the dicationic diguanidino compound DB1127 (10 μM) was used and 0.1% DMSO was added as negative control. Metacestodes were cultured in the presence of the compounds for 5 days, after which PGI release was quantified exactly as stated in Stadelmann et al. […] Averages, standard deviations and EC50 values were calculated in Microsoft Excel 2010.

| Compound | PGI (% of DB1127 at 10 uM) [%] |
| --- | --- |
| O=C(NCc1ccco1)C1CCN(S(=O)(=O)c2ccc(Br)cc2)CC1 [MMV007430] | -0.53 |
| COc1cccc(C(=O)NC(c2ccc(C)cc2)c2cc(Cl)c3cccnc3c2O)c1 (stereo not drawn) [MMV665969] | -25.94 |
| OC(CNCC1CCCO1)Cn1c2ccc(Cl)cc2c2cc(Cl)ccc21 (stereo not drawn) [MMV396736] | 50.77 |
| CCC(c1ccccc1)c1nn2c(-c3cccs3)nnc2s1 (stereo not drawn) [MMV665876] | -39.84 |
| COc1cccc(-c2nn(C)c3sc(C(=O)NCCN4CCN(c5ccccc5F)CC4)cc23)c1 [MMV019064] | -17.87 |
| COc1cc(OC)c(N(C)C(=O)c2cc3c(s2)-c2ccccc2S(=O)(=O)C3)cc1Cl [MMV006427] | -47.62 |
| C=CCc1c(C)nc2ccccc2c1O [MMV006913] | -48.01 |
| O=C(Nc1ccc(-c2nc3cc(NC(=O)c4ccc(Cl)cc4)ccc3[nH]2)cc1)c1ccc(Cl)cc1 [MMV006962] | -9.85 |
| Cl.OC(CNCc1ccccc1)Cn1c2ccccc2c2ccccc21 (stereo not drawn) [MMV000839] | -2.41 |
| CC(C)(C)c1ccc(O)c(CNC2CCCCC2)c1 [MMV665785] | 1.27 |
| Cn1c(C(=O)c2cccc3ccccc23)nc2ccccc21 [MMV665824] | -1.12 |
| c1ccc(-c2ccc(-c3nc4ccccc4[nH]3)cc2)cc1 [MMV665891] | -89.45 |
| CC(NCc1ccccc1)c1cc(Cl)ccc1O (stereo not drawn) [MMV665789] | -38.95 |
| COc1ccc(C(=O)Nc2ccc(Cl)cc2C(=O)Nc2ccncc2)cc1 [MMV665799] | 5.52 |
| CCOc1cccc2sc(N(Cc3cccnc3)C(=O)C3CCCCC3)nc12 [MMV001230] | -26.73 |
| O=C(Nc1nc(-c2ccccn2)cs1)c1ccccc1Br [MMV665909] | -125.86 |
| OCCNc1nc(Nc2ccc(Cl)c(Cl)c2)nc2ccccc12 [MMV001041] | 6.70 |
| Cc1cc(C)cc(Nc2cc(C)nc3nc(C(F)(F)F)nn23)c1 [MMV011259] | -21.18 |
| Clc1ccc2c(N3CCCC3)ccnc2c1 [MMV007363] | -15.91 |
| CCc1ccc(Nc2cc(C)c3ccc(O)cc3n2)cc1.Cl [MMV000570] | -6.94 |
| CCOC(=O)C1=C(c2ccccc2)N=c2sc(=Cc3cc(C)n(-c4ccc(F)cc4)c3C)c(=O)n2C1c1cccc(OC)c1OC (stereo not drawn) [MMV666601] | -52.06 |
| O=C(Nc1ccc(Cl)cc1)N1CCN(c2ccc3nncn3n2)CC1 [MMV665917] | -87.17 |
| COc1cc2c3cc1Oc1c(OC)c(OC)cc4c1C(Cc1ccc(O)c(c1)Oc1ccc(cc1)CC3N(C)CC2)N(C)CC4.Cl (stereo not drawn) [MMV007474] | -10.35 |
| CCn1c(CN2CCN(Cc3ccccc3)CC2)nc2cc(NC(=O)c3cccs3)ccc21 [MMV020439] | -13.64 |
| COc1ccc(OC)c(C2C3=C(CC(C)(C)CC3=O)N(c3ccc(Cl)c(Cl)c3)C3=C2C(=O)CC(C)(C)C3)c1 [MMV007208] | -12.95 |
| COc1cc2c(cc1OC)C1=NNC(=O)C1=NC(C)(C)C2 [MMV084940] | -19.88 |

| Compound | PGI (% of DB1127 at 10 uM) [%] |
| --- | --- |
| CCN1CCN(c2c(C(=O)c3ccccc3)cnc3cc(OC)c(OC)cc23)CC1 [MMV008474] | -15.22 |
| COc1ccccc1NC1=C(N2CCCCC2)C(=O)c2ccccc2C1=O [MMV085203] | 31.65 |
| COCCN(C(=O)Cc1cccs1)C(C(=O)NCc1ccc(OC)cc1)c1ccc(C(C)C)cc1 (stereo not drawn) [MMV666105] | -124.48 |
| CCCc1c(CC)c(=N)c2ccccc2n1C [MMV008416] | -40.39 |
| COC(=O)c1ccc(Cl)c2c1C1C=CCC1C(c1cccc3ccccc13)N2 (stereo not drawn) [MMV667489] | 2.16 |
| O=C(CCc1ccccc1)c1ccccc1OCC(O)CN1CCCCC1 (stereo not drawn) [MMV009015] | 4.79 |
| O=C(Nc1ccc(N2CCN(Cc3ccccc3)CC2)cc1)c1cccs1.O=C(O)C(F)(F)F [MMV019670] | -9.43 |
| CCOc1c(Cl)cc(CNC(C)C(O)c2ccccc2)cc1OC (stereo not drawn) [MMV665857] | -30.92 |
| CCC(O)c1ccc(Br)cc1NC(=O)c1cccc(Cl)c1 (stereo not drawn) [MMV020654] | -1.89 |
| CC1CC2=C(CC1CNCCCN(C)C)C(C)(C)CCC2 (stereo not drawn) [MMV665830] | -3.36 |
| CCCCOc1ccc(C(=O)Nc2cc(C)on2)cc1 [MMV007906] | -15.33 |
| COc1nc(Nc2ccc(C(C)C)cc2)nc(OC)n1 [MMV007808] | -19.50 |
| CCN(CC)CCCNc1ccnc2cc3ccccc3cc12 [MMV665783] | -52.95 |
| COc1ccc(-c2cc(=O)oc3c4c(ccc23)OCN(Cc2ccc(F)cc2)C4)cc1 [MMV000604] | 3.81 |
| CCCCc1ccc(NS(=O)(=O)c2cc3c4c(c2)CCN4C(=O)CC3)cc1 [MMV001255] | -110.46 |
| COc1ccc(CCn2c(=N)c(C(=O)NCc3cccnc3)cc3c(=O)n4cccc(C)c4nc32)cc1 [MMV667488] | -13.42 |
| O=C(NC1CCN(Cc2ccccc2)CC1)c1cc2nc(-c3ccc(Cl)s3)cc(C(F)(F)F)n2n1 [MMV396635] | -11.44 |
| CCOc1ccc(C2N(C)c3ccccc3N2C)cc1 [MMV075490] | 26.52 |
| CCOc1c(Cl)cc(CNCC(O)c2ccccc2)cc1OC (stereo not drawn) [MMV396632] | 5.30 |
| Oc1c(CN2CCN(c3ccccc3F)CC2)cc(Br)c2cccnc12 [MMV000760] | -8.56 |
| CCOc1cc(CNC(C)C(O)c2ccccc2)cc(Cl)c1OCC (stereo not drawn) [MMV396633] | 30.39 |
| CCOc1cc2c(cc1OCC)C(c1cc(OC)c(O)cc1Cl)NCC2 (stereo not drawn) [MMV008956] | -28.84 |
| Cl.N=c1n(CCN2CCCCC2)c2ccccc2n1CC(O)c1cccc(Br)c1 (stereo not drawn) [MMV665902] | -8.42 |
| COc1ccc(C2NCCc3c2[nH]c2ccccc32)cc1CN1CCN(c2ccc(F)cc2)CC1.Cl (stereo not drawn) [MMV019690] | 51.28 |
| CCOc1ccc(/C=C/c2nc(=O)c3ccccc3o2)cc1 [MMV665940] | -92.49 |
| CCCCCCc1cc(O)c2c3c(c(=O)oc2c1)CCC(C)C3 (stereo not drawn) [MMV665987] | 4.36 |

| Compound | PGI (% of DB1127 at 10 uM) [%] |
| --- | --- |
| CCN(CC)CCCNc1nc(-c2ccc(Cl)cc2)nc2ccccc12 [MMV665961] | -34.32 |
| COc1ccc(C(O)(CCC(C)C)C(CN2CCOCC2)c2ccc(Cl)cc2)cc1.Cl (stereo not drawn) [MMV000617] | -8.60 |
| Oc1ccc(Br)cc1CN1CCN(Cc2ccc(Cl)cc2)CC1 [MMV665809] | -23.13 |
| CC(O)(c1ccc(Cl)cc1)C(CN1CCCCC1)c1ccccc1.Cl (stereo not drawn) [MMV000620] | -136.22 |
| N#Cc1nc(Cc2cccc3ccccc23)oc1N1CCN(C(c2ccccc2)c2ccccc2)CC1 [MMV396726] | -6.81 |
| O=C(Nc1ccsc1C(=O)NC1CCCCC1)c1ccc(F)cc1 [MMV665939] | -15.17 |
| CCOc1ccc(-n2cc(-c3ccccc3)c3c(SCc4cc(C)ccc4C)ncnc32)cc1 [MMV085471] | -19.26 |
| CCOC(=O)c1cn(CC)c2cc(N3CCCCC3)c(F)cc2c1=O [MMV665827] | -20.29 |
| CC(C)(C)c1ccc(C(=O)Nc2nc3ccccc3s2)cc1 [MMV142383] | -17.15 |
| Br.CCN(CC)S(=O)(=O)c1ccc(-c2csc(Nc3ccc(C)c(C)c3)n2)cc1 [MMV009108] | 14.04 |
| CC(=O)c1sc(NC(=O)Nc2ccc(C)cc2C)nc1C [MMV665894] | -2.69 |
| C=CC12CCN(CC1)C(C(O)c1ccnc3ccc(OC)cc13)C2.Cl (stereo not drawn) [MMV665782] | -43.49 |
| CCN1CCN(c2cc(C)c3cc(NC(=O)c4ccc(OC)c(OC)c4)ccc3n2)CC1 [MMV019074] | -7.35 |
| COc1cccc(C=Cc2nc(=O)c3ccccc3o2)c1OC [MMV666693] | -16.84 |
| Cc1cc(C=C2SC(=Nc3ccccc3)N(C3CCCC3)C2=O)c(C)n1-c1ccc(Cl)cc1 [MMV666688] | -35.93 |
| COc1ccc(C(=O)NC(c2ccccc2Cl)c2cc(Cl)c3cccnc3c2O)cc1 (stereo not drawn) [MMV666022] | 259.47 |
| FC(F)(F)c1cccc(Nc2nc(-c3ccccc3)nc3ncccc23)c1 [MMV665798] | 30.38 |
| CCCCCn1c(=N)n(CC(O)COc2cccc(C)c2)c2ccccc21.Cl (stereo not drawn) [MMV000444] | 66.85 |
| CN1c2ccccc2N(C)C1c1ccc2c(c1)OCO2 [MMV666009] | -36.57 |
| CN(C)c1ccc(C=Cc2nc(=O)c3ccccc3o2)cc1 [MMV006309] | 24.63 |
| COc1ccc2nc(N)nc(C)c2c1 [MMV665897] | -26.21 |
| COc1ccccc1N1C(=N)SC(=Cc2ccc(OCc3ccccc3F)cc2)C1=O [MMV007199] | -51.03 |
| Cc1cc(Nc2ccc(OCc3ccccc3)cc2)nc2cc(O)ccc12 [MMV007181] | 115.72 |
| Cc1ccc(CSCc2ccc(C(=O)NC3CC3)o2)cc1 [MMV007571] | -9.42 |
| COc1ccc(C2c3ccc4ccccc4c3Oc3ncn(CCCN(C)C)c(=N)c32)cc1 (stereo not drawn) [MMV667491] | 39.81 |
| Cc1ccc(C2CC(C(F)(F)F)n3nc(C(=O)N4CCN(C(c5ccccc5)c5ccccc5)CC4)cc3N2)cc1 (stereo not drawn) [MMV000699] | -1.50 |

— PMC4788259 (PLoS Neglected Tropical Diseases, 2016)
